Test results reported in publication PMC8312697, “Mechanistic Investigations Support Liver Safety of Ubrogepant” (Toxicological Sciences, 2020).
Values after ≈ are worked out from the molar mass of the structure shown. Read-outs that look alike come from different tables or passages of the source.

Key:
[1] = system: Nrf2 electrophilic stress and Nrf1 proteasomal stress pathways; assay: In vivo rat liver gene expression bioactivation liver response assay (BA-LRA); details: for maximum liver safe daily dose predicted from BA-LRA: human daily dose projected from rat BA-LRA score; for upregulation of pathways associated with electrophilic and proteasomal stress: rat liver gene expression studies; for BA-LRA score: also presented in Monroe et al., 2018
Description: A prediction of a clinical daily dose burden associated with reactive metabolite-mediated DILI potential was derived from a focused and integrated quantitative rat liver molecular gene expression signature optimized predominantly for Nrf2 electrophilic stress and Nrf1 proteasomal stress pathways to describe a bioactivation liver response assay (BA-LRA) result. […] The clinical dose is identified that projects DILI risk to exceed the optimized threshold calculation for each BA-LRA result.

[2] = system: RNS/ROS production; assay: DILIsym fit of ROS data (oxidative stress parameter); set-up: species or system human; details: fit of 24-hour HepG2 ROS data
Description: Parameter values for telcagepant-mediated induction of oxidative stress were identified by simulating the experimental data in DILIsym® using a DILIsym® dosing scheme meant to represent in vitro conditions.
Parameter values for ubrogepant-mediated induction of oxidative stress were identified by simulating the experimental data in DILIsym using a DILIsym drug exposure scheme designed to represent in vitro conditions.
Parameter values for MK-3207-mediated induction of oxidative stress were identified by simulating the experimental data in DILIsym using a DILIsym drug exposure scheme meant to represent in vitro conditions. Intracellular compound concentrations were also assayed in identical cell cultures; the experimental method was the same as that described above for ubrogepant.

[3] = system: rats; assay: Conventional nonclinical toxicology study, rat; assay type: in vivo
Procedure: (§1) Conventional animal toxicology studies in rats and monkeys were performed by Merck & Co, Inc (West Point, Pennsylvania).

[4] = system: clinical trial participants; set-up: cases of ALT or AST ≥ 3× ULN: unit not given here; details: cited from earlier work
[5] = Compound solubility limit in transporter assay buffer; assay type: physicochemical; details: read-out: upper limit of compound solubility
Procedure: To assess the functional impact of ubrogepant on the human ABC efflux transporters BSEP, MRP3, and MRP4, in vitro vesicular transport inhibition assays were conducted by Solvo Biotechnology (Szeged, Hungary). The ability of ubrogepant to inhibit the BSEP-mediated transport (and accumulation) of a probe substrate was tested at concentrations ranging from 0.04 – 30 μM, where the latter defined the upper limit of compound solubility in the BSEP assay buffer. For the MRP3 and MRP4 vesicle-based transporter assessments, ubrogepant concentrations of 0.1 to 70 μM were used. To assess the functional impact of ubrogepant on the human SLC (uptake) transporter NTCP, in vitro experiments were performed using HEK293 cells stably expressing NTCP. The ability of ubrogepant to inhibit NTCP-mediated uptake (and accumulation) of taurocholate was tested at concentrations ranging from 0.04 – 30 μM.
To assess the functional impact of MK-3207 on the human ABC efflux transporters BSEP, MRP3 and MRP4, in vitro vesicular transport inhibition assays were conducted by Solvo Biotechnology (Szeged, Hungary) and overseen by DSSI. BSEP transport was assessed in the presence of 0.5-30 µM MK-3207; MRP3 and MRP4 transport was assessed in the presence of 0.11-80 µM MK-3207. The upper limits of these ranges were determined by compound solubility in each assay buffer. NTCP transporter inhibition was assessed in NTCP-expressing HEK293 cells in the presence of 0.03 – 25 µM MK-3207.

[6] = system: monkeys; assay: Conventional nonclinical toxicology study, NHP; details: 9M NHP
Procedure: as §1

[7] = target: T1, CYP3A4 (Homo sapiens, UniProt P08684); assay: HEK293/CYP3A4 assay of Nrf2 stabilization and CYP3A4 degradation; assay type: cell-based; details: HEK293 cells with inducible CYP3A4, Western blot
T1 construct: expressed in transfected cells; host or cells: HEK293 Flp-In host cell line (Invitrogen/ThermoFisher Flp-In T-REx system)
T1 sequence (P08684 whole entry): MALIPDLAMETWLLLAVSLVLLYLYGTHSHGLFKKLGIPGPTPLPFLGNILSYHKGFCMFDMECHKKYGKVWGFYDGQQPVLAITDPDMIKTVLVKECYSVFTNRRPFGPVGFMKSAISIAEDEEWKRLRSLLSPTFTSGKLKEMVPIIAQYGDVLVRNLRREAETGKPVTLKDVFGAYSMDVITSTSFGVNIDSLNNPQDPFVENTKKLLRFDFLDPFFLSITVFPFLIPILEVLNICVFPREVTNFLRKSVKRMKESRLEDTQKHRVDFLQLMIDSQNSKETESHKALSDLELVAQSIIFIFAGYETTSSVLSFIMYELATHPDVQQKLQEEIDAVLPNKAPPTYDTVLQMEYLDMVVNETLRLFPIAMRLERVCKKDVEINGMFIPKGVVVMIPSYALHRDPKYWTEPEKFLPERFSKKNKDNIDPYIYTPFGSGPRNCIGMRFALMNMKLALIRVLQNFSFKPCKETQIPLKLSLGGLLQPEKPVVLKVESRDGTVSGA
Description: Specifically, these assays evaluated the potential of the 3 different CGRP receptor antagonists to form reactive metabolites that promote the stabilization of Nrf2 or covalently bind to CYP3A4, triggering its subsequent time-dependent degradation, as assessed by Western blot. To seek further confirmatory evidence for reactive metabolite formation, a HEK293 cell line expressing doxycycline inducible CYP3A4 P450 enzyme expression construct with a Flag tag epitope fused to the C-terminus was constructed and cloned using the Invitrogen/ThermoFisher Scientific Flp-In T-TEx system and the HEK293 Flp-In host cell line per standard protocol. […] Alternatively, this simplified single CYP test model might not allow for Nrf2 stabilization if sufficient quantities of the chemically reactive metabolite cannot be generated by CYP3A4, or cannot escape the catalytic site of CYP3A4, which would appear on Western blot using anti-Flag antibody as time-dependent CYP3A4 degradation.

[8] = among the 5 patients with ALT > 3-fold ULN at > 500 mg daily, ref Hargreaves and Olesen, 2019, Hewitt et al., 2011
[9] = MRP3 and MRP4 assay buffer, aqueous buffer

Q: What does the source list for `O=C(CN1C(=O)C2(CCCC2)NC[C@H]1c1cc(F)cc(F)c1)Nc1ccc2c(c1)C[C@@]1(C2)C(=O)Nc2ncccc21` [MK-3207]?
A: maximum liver safe daily dose predicted from BA-LRA [1]: 300 mg; upregulation of pathways associated with electrophilic and proteasomal stress [1]: upregulated pathways associated with electrophilic and proteasomal stress; BA-LRA score ([1]; rat liver, 600 mg/kg/day × 4 days): 0.34; RNS/ROS production rate constant [2]: 0.00022 mL/nmol/h; Pivotal conventional nonclinical toxicology study liver findings ([3]; 6M rat): no liver safety signal; exposure margin ([3]; 6M rat): 25 ×; patients symptomatic with Hy’s law [4, 8]: 1; patients with > 20-fold ALT rises [4, 8]: 3; Clinical ALT > 3× ULN ([4]; daily doses > 500 mg, individuals dosed for more than 1 week, most responding given 600–900 mg per day, ref Hargreaves and Olesen, 2019, Hewitt et al., 2011): 42% (5/12) among individuals dosed for more than 1 week; most responding were given 600–900 mg per day; ALT > 3-fold ULN after 2 weeks ([4]; daily doses of < 100 mg, ref Hargreaves and Olesen, 2019, Hewitt et al., 2011): 1%; solubility ([5]; BSEP assay buffer): 30 µM (≈ 16.7 µg/mL); solubility [5, 9]: 80 µM (≈ 44.6 µg/mL); Pivotal conventional nonclinical toxicology study liver findings [6]: no liver safety signal; exposure margin [6]: 4 ×; formation of reactive metabolites that covalently bind to CYP3A4 and result in its degradation [7]: formed reactive metabolites that covalently bind to CYP3A4 and result in its degradation

Q: For `O=C(N[C@@H]1CC[C@@H](c2cccc(F)c2F)CN(CC(F)(F)F)C1=O)N1CCC(n2c(=O)[nH]c3ncccc32)CC1` [Telcagepant], which “maximum liver safe daily dose predicted from BA-LRA” value [1] is on record?
A: The value was < 600 mg.

Q: What about the “upregulation of pathways associated with electrophilic and proteasomal stress” value [1] of the same molecule?
A: Its value is “upregulated pathways associated with electrophilic and proteasomal stress”.

Q: What about the BA-LRA score ([1]; rat liver, 400 mg/kg/day × 4 days, evidence of transcriptional suppression) of the same molecule?
A: Its BA-LRA score is 0.30.

Q: And the “RNS/ROS production rate constant” value [2]?
A: The value was 20,000 mL/mol/hr.

Q: What about the “Pivotal conventional nonclinical toxicology study liver findings” value ([3]; 3M rat) of the same molecule?
A: The value was < 3× ALT/AST with no liver histopathology.

Q: What about the exposure margin ([3]; 3M rat) of the same molecule?
A: The exposure margin was 15 ×.

Q: What about the “Pivotal conventional nonclinical toxicology study liver findings” value ([3]; 6M rat) of the same molecule?
A: The value was “no liver safety signal”.

Q: And the exposure margin ([3]; 6M rat)?
A: Its exposure margin is 7 ×.

Q: What about the “Clinical ALT > 3× ULN” value ([4]; 140 mg BID 12 weeks, ref Ho et al., 2014) of the same molecule?
A: The value was 1.9% (5/258) ([Ho et al., 2014]).

Q: And the “Clinical ALT > 3× ULN” value ([4]; 140 mg BID 12 weeks, ref Ho et al., 2014, listed as telcagepant)?
A: The value was 1.9%.

Q: What about the “Clinical ALT > 3× ULN” value ([4]; 280 mg BID 12 weeks, ref Ho et al., 2014) of the same molecule?
A: The value was 3.2%.

Q: What about the solubility ([5]; aqueous buffer, BSEP, MRP3, MRP4 vesicular transport assays) of the same molecule?
A: The solubility was 20 µM (≈ 11.3 µg/mL).

Q: What about the “Pivotal conventional nonclinical toxicology study liver findings” value [6] of the same molecule?
A: The value was “no liver safety signal”.

Q: And the exposure margin [6]?
A: Its exposure margin is 7 ×.

Q: And the “formation of reactive metabolites that covalently bind to CYP3A4 and result in its degradation” value [7]?
A: Its value is “did not”.

Q: With `C[C@@H]1[C@H](c2ccccc2)C[C@H](NC(=O)c2cnc3c(c2)C[C@@]2(C3)C(=O)Nc3ncccc32)C(=O)N1CC(F)(F)F` [Ubrogepant] as the molecule, how does the “upregulation of pathways associated with electrophilic and proteasomal stress” value [1] read?
A: Its value is “did not”.

Q: What about the BA-LRA response ([1]; rat liver, 7 days with 750 mg/kg) of the same molecule?
A: The BA-LRA response was “No BA-LRA response”.

Q: And the “RNS/ROS production rate constant” value [2]?
A: The value was 0.00016 mL/nmol/h.

Q: What about the “Pivotal conventional nonclinical toxicology study liver findings” value ([3]; 6M rat) of the same molecule?
A: Its value is < 2× ALT with no liver histopathology.

Q: And the exposure margin ([3]; 6M rat)?
A: The exposure margin was 70 ×.

Q: What about the “ALT/AST ≥ 3-fold ULN, number of participants” value ([4]; 100 mg QD 2 days on, 2 days placebo, alternating, 8 weeks, healthy adults, n = 256, ref Goadsby et al., 2019) of the same molecule?
A: Its value is 2.

Q: What about the “cases of ALT or AST ≥ 3× ULN” value ([4]; 52-week long-term extension trial, 1230 people, ref Ailani et al., 2019) of the same molecule?
A: The value was 20.

Q: What about the solubility ([5]; BSEP assay buffer, aqueous buffer) of the same molecule?
A: Its solubility is 30 µM (≈ 16.5 µg/mL).

Q: And the solubility [5, 9]?
A: Its solubility is 70 µM (≈ 38.5 µg/mL).

Q: And the “Pivotal conventional nonclinical toxicology study liver findings” value [6]?
A: Its value is “no liver safety signal”.

Q: And the exposure margin [6]?
A: Its exposure margin is 163 ×.

Q: And the “formation of reactive metabolites that covalently bind to CYP3A4 and result in its degradation” value [7]?
A: Its value is “did not”.
